Data as given in patent publication US10100018B2, “Amide derivatives as lysophosphatidic acid receptor antagonists” (Takeda Pharmaceutical Company Limited, priority 2013, dated 2018).
Counter-ions that a name gives are not always drawn. Like-named read-outs stand apart in the source and are kept apart here.

Assays:
[1] = test system: bleomycin-induced scleroderma; assay: In vivo bleomycin induced scleroderma model; design: species or system C57BL/6 mice; settings: for skin collagen content compared to the vehicle-treated group: skin samples Day 28
Description: In Vivo Bleomycin Induced Scleroderma Model
Adult male C57BL/6 mice, aged 8-10 weeks, were assigned to groups and allowed to acclimatise for a week. On Day −1, the back skin of the animals was shaved. From Day 0, animals were administered with 100 μl of a 1 mg/ml solution of bleomycin sulphate in phosphate buffered saline (PBS) by intradermal injection in the shaved skin. Injections were repeated in a one square centimeter area every other day for four weeks. A group of ten animals (Control group) was injected with an identical volume of PBS. Animals were weighed at the beginning of the experiment on Day 0 and then twice weekly throughout the study. At the end of the experiment, on Day 28, animals were culled and samples of back skin were taken for further analysis. All groups were n=10; the vehicle was distilled water and the administration volume was 10 ml/kg for oral gavage (p.o.); administration volume was 25 μl for topical application.
Bodyweights were graphed along with the standard error of the mean (SEM); Skin samples (two punch biopsies per animal, 4 mm in diameter each) samples were hydrolyzed and hydroxyproline content of the samples was determined from analysis in a semi-automated process using a continuous flow analyzer. Autoanalyser readings were calibrated against hydroxyproline standards and collagen content calculated.

FPP-induced hyperalgesia = assay: In vivo farnesyl pyrophosphate-induced inflammatory (hyperalgesia) model, Randall-Selitto; settings: Rattus norvegicus, adult male rats, read-out: In vivo efficacy (minimum effective dose (MED)
Description: In Vivo Farnesyl Pyrophosphate-Induced Inflammatory Model
The FPP-induced hyperalgesia model is a pharmacodynamic rat model which involves inducing pain by injecting FPP, an agonist of LPA5 receptor, into the plantar surface of the hindpaw.
Withdrawal responses were reassessed at 30 and 90 minutes after injection of FPP in the ipsilateral paw.

LPA5 receptor = LPA5 receptor (Homo sapiens (Human), UniProt Q9H1C0); settings: reported, Williams et al. (2009); cited from earlier work
LPA5 receptor, sequence (Q9H1C0 whole entry): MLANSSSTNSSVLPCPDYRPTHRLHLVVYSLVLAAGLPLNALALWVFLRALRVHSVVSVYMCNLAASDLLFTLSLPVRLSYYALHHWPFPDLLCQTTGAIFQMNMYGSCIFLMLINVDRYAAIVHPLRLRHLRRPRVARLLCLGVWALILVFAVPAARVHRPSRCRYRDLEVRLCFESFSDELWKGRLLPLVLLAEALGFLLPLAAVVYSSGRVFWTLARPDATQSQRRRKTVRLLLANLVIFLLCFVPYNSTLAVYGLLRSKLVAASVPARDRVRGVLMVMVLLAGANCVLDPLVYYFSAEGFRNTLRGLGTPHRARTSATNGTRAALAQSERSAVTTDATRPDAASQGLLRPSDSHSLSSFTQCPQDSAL

Structure (SMILES)	minimal effective dose (FPP-induced hyperalgesia; route po) [mg/kg]	also measured
C[C@H]1C[C@H]2[C@@H]3CCC4=CC(=O)C=C[C@]4(C)[C@@]3(F)[C@@H](O)C[C@]2(C)[C@@]1(O)C(=O)CO [Betamethasone, reference compound]		skin collagen content compared to the vehicle-treated group ([1]; administered from Day 0): non-significant reduction
O=C(O)c1ccc(CN(CC(F)(F)F)C(=O)c2ccc(Oc3ccccc3F)cc2)cc1 [Example 3, 4-((4-(2-Fluorophenoxy)-N-(2,2,2-trifluoroethyl)benzamido)-methyl)benzoic acid]	≤ 10	
CC(C)CN(Cc1ccc(C(=O)O)cc1)C(=O)c1ccc(Oc2ccccc2F)cc1 [Example 4, 4-((4-(2-Fluorophenoxy)-N-isobutylbenzamido)methyl)benzoic acid]	≤ 10	minimal effective dose (FPP-induced hyperalgesia; route ip): 1 mg/kg
O=C(O)c1ccc(CN(CC2CC2)C(=O)c2ccc(Oc3ccccc3F)cc2)cc1 [Example 5, 4-((N-(Cyclopropylmethyl)-4-(2-fluorophenoxy)benzamido)-methyl)benzoic acid]	≤ 10	bodyweight loss compared to the vehicle-treated group ([1]; 30 mg/kg p.o. BID, treated groups): did not differ; skin collagen content compared to the vehicle-treated group ([1]; administered from Day 0): significant reduction; skin collagen content compared to the vehicle-treated group ([1]; administered from Day 14 to Day 28, 30 mg/kg p.o. BID): significant reduction; minimal effective dose (FPP-induced hyperalgesia; route ip): 0.3 mg/kg
CC(C)CCN(Cc1ccc(C(=O)O)cc1)C(=O)c1ccc(Oc2ccccc2F)cc1 [Example 8, 4-((4-(2-Fluorophenoxy)-N-isopentylbenzamido)methyl)benzoic acid]	100	
O=C(O)c1ccc(CN(Cc2ccccc2)C(=O)c2ccc(Oc3ccccc3F)cc2)cc1 [Example 11, 4-((N-Benzyl-4-(2-fluorophenoxy)benzamido)methyl)benzoic acid]	≤ 10	
Cc1ccccc1Oc1ccc(C(=O)N(Cc2ccccc2)Cc2ccc(C(=O)O)cc2)cc1 [Example 24, 4-((N-Benzyl-4-(o-tolyloxy)benzamido)methyl)benzoic acid]	30	
COc1ccccc1Oc1ccc(C(=O)N(Cc2ccc(C(=O)O)cc2)CC(F)F)cc1 [Example 29, 4-((N-(2,2-Difluoroethyl)-4-(2-methoxyphenoxy)benzamido)-methyl)benzoic acid]	3	
COc1ccccc1Oc1ccc(C(=O)N(Cc2ccc(C(=O)O)cc2)CC2CC2)cc1 [Example 31, 4-((N-(Cyclopropylmethyl)-4-(2-methoxyphenoxy)benzamido)-methyl)benzoic acid]	1	
Cc1cccc(F)c1Oc1ccc(C(=O)N(Cc2ccc(C(=O)O)cc2)CC2CC2)cc1 [Example 40, 4-((N-(Cyclopropylmethyl)-4-(2-fluoro-6-methylphenoxy)-benzamido)methyl)benzoic acid]	60	
CC(C)=CCC/C(C)=C/CC/C(C)=C/COP(=O)(O)OP(=O)(O)O [Farnesyl pyrophosphate]		selectivity over other LPA receptors (LPA5 receptor): 3 fold
Cc1ccc(NC(=O)c2ccc(CN3CCN(C)CC3)cc2)cc1Nc1nccc(-c2cccnc2)n1 [Imatinib, Imatinib mesylate, reference compound]		skin collagen content compared to the vehicle-treated group ([1]; administered from Day 0): non-significant reduction
